The DC50 is the concentration giving 50% degradation.

The target in the first experiment is T1, PIP4K2C (Homo sapiens, UniProt Q8TBX8).
T1 sequence (Q8TBX8 1-421): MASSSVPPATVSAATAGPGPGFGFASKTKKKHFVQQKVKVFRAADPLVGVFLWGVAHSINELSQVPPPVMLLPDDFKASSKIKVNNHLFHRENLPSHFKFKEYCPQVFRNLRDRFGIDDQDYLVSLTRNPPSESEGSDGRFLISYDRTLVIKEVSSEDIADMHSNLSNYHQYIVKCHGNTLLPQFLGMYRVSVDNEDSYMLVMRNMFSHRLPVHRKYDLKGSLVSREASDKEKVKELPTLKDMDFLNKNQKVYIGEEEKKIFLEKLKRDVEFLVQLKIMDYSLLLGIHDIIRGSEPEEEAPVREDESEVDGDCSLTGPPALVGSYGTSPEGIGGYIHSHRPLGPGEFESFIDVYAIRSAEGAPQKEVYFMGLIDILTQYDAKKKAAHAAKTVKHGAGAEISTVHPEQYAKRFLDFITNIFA
Description: HiBiT PIP4K2C degradation assay in MOLT-4 cells (endogenous PIP4K2C C-terminally tagged with HiBiT). The class given is cell-based. The arrangement: untagged in primary human PBMCs and monocyte-derived dendritic cells. Conditions: 6 hours of incubation time, rather than 24 hours; MOLT-4, top concentration 10 micromolar; read-out: HiBIT-degradation MOLT4 PIP4k2C DC50 (6 hours, marked *). Summed up: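 Luminescent HiBiT lytic readout of residual PIP4K2C-HiBiT (CRISPR knock-in, MOLT-4, phenol red-free RPMI-1640 + 10% FBS). Cells exposed 6 or 24 h at 37 C to compound, top 10 micromolar, 3-fold, 10 points, duplicate. Hill fit (Levenberg-Marquardt) gives DC50.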
A general note: The HiBiT peptide binds its large partner to form an active luciferase.
As for `O=C1CCC(Nc2ccc(C3CCN(CCC4CCN(C(=O)[C@@H]5CCC[C@H](Nc6ncc(F)c(-c7cccc(-n8ccccc8=O)c7)n6)C5)CC4)CC3)c(F)c2)C(=O)N1` (stereo partly drawn) [Compound 308, 3-((3-fluoro-4-(1-(2-(1-((1R,3S)-3-((5-fluoro-4-(3-(2-oxopyridin-1(2H)-yl)phenyl)pyrimidin-2-yl)amino)cyclohexane-1-carbonyl)piperidin-4-yl)ethyl)piperidin-4-yl)phenyl)amino)piperidine-2,6-dione], the DC50 is < 500 nM.

Still in this experiment, the particulars now being: 24 hours incubation, MOLT-4, top concentration 10 micromolar; read-out: HiBIT-degradation MOLT4 PIP4k2C 24 hours DC50.
Take `Cn1nc(C2CCC(=O)NC2=O)c2ccc(C3CCN(C(=O)CN4CCC(O)(C(=O)N5CCC(Nc6ncc(Cl)c(-c7cccc(-c8ccc(F)cc8)c7)n6)CC5)CC4)CC3)cc21` (centres unmarked) [Compound 289, 3-(6-(1-(2-(4-(4-((5-chloro-4-(4′-fluoro-[1,1′-biphenyl]-3-yl)pyrimidin-2-yl)amino)piperidine-1-carbonyl)-4-hydroxypiperidin-1-yl)acetyl)piperidin-4-yl)-1-methyl-1H-indazol-3-yl)piperidine-2,6-dione]: the DC50 is < 500 nM.

On to `Cn1nc(C2CCC(=O)NC2=O)c2ccc(C3CCN(CC(=O)N4CCC(O)(C(=O)N5CCC(Nc6ncc(Cl)c(-c7cccc(-c8ccc(F)cc8)c7)n6)CC5)CC4)CC3)cc21` (centres unmarked) [Compound 290, 3-(6-(1-(2-(4-(4-((5-chloro-4-(4′-fluoro-[1,1′-biphenyl]-3-yl)pyrimidin-2-yl)amino)piperidine-1-carbonyl)-4-hydroxypiperidin-1-yl)-2-oxoethyl)piperidin-4-yl)-1-methyl-1H-indazol-3-yl)piperidine-2,6-dione], for which the DC50 is < 500 nM.

As for `O=C1CCC(n2c(=O)oc3c(C4CCN(C(=O)CN5CCC(C(=O)N6CCC(Nc7ncc(Cl)c(-c8cccc(-c9ccc(F)cc9)c8)n7)CC6)CC5)CC4)cccc32)C(=O)N1` (centres unmarked) [Compound 293, 3-(7-(1-(2-(4-(4-((5-chloro-4-(4′-fluoro-[1,1′-biphenyl]-3-yl)pyrimidin-2-yl)amino)piperidine-1-carbonyl)piperidin-1-yl)acetyl)piperidin-4-yl)-2-oxobenzo[d]oxazol-3 (2H)-yl)piperidine-2,6-dione], the DC50 was < 500 nM.

Take `O=C1CCC(n2c(=O)oc3cc(C4CCN(CC5CCN(CC(=O)N6CCC(Nc7ncc(Cl)c(-c8cccc(-c9ccc(F)cc9)c8)n7)CC6)CC5)CC4)ccc32)C(=O)N1` (centres unmarked) [Compound 294, 3-(6-(1-((1-(2-(4-((5-chloro-4-(4′-fluoro-[1,1′-biphenyl]-3-yl)pyrimidin-2-yl)amino)piperidin-1-yl)-2-oxoethyl)piperidin-4-yl)methyl)piperidin-4-yl)-2-oxobenzo[d]oxazol-3 (2H)-yl)piperidine-2,6-dione]: the DC50 is < 500 nM.

For `O=C1CCC(N2Cc3c(OC4CCN(C5CCCN(CC(=O)N6CCC(Nc7ncc(Cl)c(-c8cccc(-c9ccc(F)cc9)c8)n7)CC6)C5)CC4)cccc3C2=O)C(=O)N1` (centres unmarked) [Compound 296, 3-(4-((1′-(2-(4-((5-chloro-4-(4′-fluoro-[1,1′-biphenyl]-3-yl)pyrimidin-2-yl)amino)piperidin-1-yl)-2-oxoethyl)-[1,3′-bipiperidin]-4-yl)oxy)-1-oxoisoindolin-2-yl)piperidine-2,6-dione], the DC50 was < 500 nM.

With `Cn1c(=O)n(C2CCC(=O)NC2=O)c2ccc(C3CCN(C4CCN(CCC(=O)N5CCC(Nc6ncc(Cl)c(-c7cccc(-c8ccc(F)cc8)c7)n6)CC5)CC4)CC3)cc21` (centres unmarked) [Compound 300, 3-(5-(1′-(3-(4-((5-chloro-4-(4′-fluoro-[1,1′-biphenyl]-3-yl)pyrimidin-2-yl)amino)piperidin-1-yl)-3-oxopropyl)-[1,4′-bipiperidin]-4-yl)-3-methyl-2-oxo-2,3-dihydro-1H-benzo[d]imidazol-1-yl)piperidine-2,6-dione], the DC50 is < 500 nM.

Turning to `Cn1c(=O)n(C2CCC(=O)NC2=O)c2ccc(C3CCN(CC4CCN(CC(=O)N[C@H]5CC[C@H](Nc6ncc(F)c(-c7cccc(-n8ccccc8=O)c7)n6)CC5)CC4)CC3)cc21` (stereo partly drawn) [Compound 301, trans-2-(4-((4-(1-(2,6-dioxopiperidin-3-yl)-3-methyl-2-oxo-2,3-dihydro-1H-benzo[d]imidazol-5-yl)piperidin-1-yl)methyl)piperidin-1-yl)-N-(4-((5-fluoro-4-(3-(2-oxopyridin-1(2H)-yl)phenyl)pyrimidin-2-yl)amino)cyclohexyl)acetamide], the DC50 was < 500 nM.

With `O=C1CCC(n2c(=O)oc3cc(C4CCN(CC5CCN(CC(=O)N6CCC(Nc7ncc(F)c(-c8cccc(-n9ccccc9=O)c8)n7)CC6)CC5)CC4)ccc32)C(=O)N1` (centres unmarked) [Compound 303, 3-(6-(1-((1-(2-(4-((5-fluoro-4-(3-(2-oxopyridin-1(2H)-yl)phenyl)pyrimidin-2-yl)amino)piperidin-1-yl)-2-oxoethyl)piperidin-4-yl)methyl)piperidin-4-yl)-2-oxobenzo[d]oxazol-3 (2H)-yl)piperidine-2,6-dione], the DC50 is < 500 nM.

For `Cn1nc(C2CCC(=O)NC2=O)c2ccc(C3CCN(CC4CCN(CC(=O)N[C@H]5CC[C@H](Nc6ncc(F)c(-c7cccc(-n8ccccc8=O)c7)n6)CC5)CC4)CC3)cc21` (stereo partly drawn) [Compound 304, trans-2-(4-((4-(3-(2,6-dioxopiperidin-3-yl)-1-methyl-1H-indazol-6-yl)piperidin-1-yl)methyl)piperidin-1-yl)-N-(4-((5-fluoro-4-(3-(2-oxopyridin-1(2H)-yl)phenyl)pyrimidin-2-yl)amino)cyclohexyl)acetamide], the DC50 was < 500 nM.

In the case of `O=C1CCC(Nc2ccc(N3CCC(N4CCC(C(=O)N[C@H]5CC[C@H](Nc6ncc(F)c(-c7cccc(-n8ccccc8=O)c7)n6)CC5)CC4)CC3)c(F)c2)C(=O)N1` (stereo partly drawn) [Compound 305, trans-1′-(4-((2,6-dioxopiperidin-3-yl)amino)-2-fluorophenyl)-N-(4-((5-fluoro-4-(3-(2-oxopyridin-1(2H)-yl)phenyl)pyrimidin-2-yl)amino)cyclohexyl)-[1,4′-bipiperidine]-4-carboxamide], the DC50 was < 500 nM.

In the case of `O=C1CCC(Nc2ccc(C3CCN(CCC4CCN(C(=O)[C@H]5CCC[C@@H](Nc6ncc(F)c(-c7cccc(-n8ccccc8=O)c7)n6)C5)CC4)CC3)c(F)c2)C(=O)N1` (stereo partly drawn) [Compound 309, 3-((3-fluoro-4-(1-(2-(1-((1S,3R)-3-((5-fluoro-4-(3-(2-oxopyridin-1(2H)-yl)phenyl)pyrimidin-2-yl)amino)cyclohexane-1-carbonyl)piperidin-4-yl)ethyl)piperidin-4-yl)phenyl)amino)piperidine-2,6-dione], the DC50 is > 5000 nM.

`O=C1CCC(Nc2ccc(C3CCN(CCC4CCN(C(=O)[C@@H]5CCC[C@H](Nc6ncc(F)c(-c7cccc(-n8ccccc8=O)c7)n6)C5)CC4)CC3(F)F)c(F)c2)C(=O)N1` (stereo partly drawn) [Compound 310, 3-[4-[3,3-difluoro-1-[2-[1-[(1R,3S)-3-[[5-fluoro-4-[3-(2-oxo-1-pyridyl)phenyl]pyrimidin-2-yl]amino]cyclohexanecarbonyl]-4-piperidyl]ethyl]-4-piperidyl]-3-fluoro-anilino]piperidine-2,6-dione]: the DC50 is < 500 nM.

`O=C1CCC(Nc2ccc(C3CCN(CCC4CCN(C(=O)[C@H]5CCC[C@@H](Nc6ncc(F)c(-c7cccc(-n8ccccc8=O)c7)n6)C5)CC4)CC3(F)F)c(F)c2)C(=O)N1` (stereo partly drawn) [Compound 311, 3-((4-(3,3-difluoro-1-(2-(1-((1S,3R)-3-((5-fluoro-4-(3-(2-oxopyridin-1(2H)-yl)phenyl)pyrimidin-2-yl)amino)cyclohexane-1-carbonyl)piperidin-4-yl)ethyl)piperidin-4-yl)-3-fluorophenyl)amino)piperidine-2,6-dione]: the DC50 is < 500 nM.

In the case of `Cn1c(=O)n(C2CCC(=O)NC2=O)c2ccc(C3CCN(CC4CCN(CC(=O)N5CCC(Nc6ncc(F)c(-c7cccc(-n8ccccc8=O)c7)n6)CC5)CC4)CC3)cc21` (centres unmarked) [Compound 312, 3-(5-(1-((1-(2-(4-((5-fluoro-4-(3-(2-oxopyridin-1(2H)-yl)phenyl)pyrimidin-2-yl)amino)piperidin-1-yl)-2-oxoethyl)piperidin-4-yl)methyl)piperidin-4-yl)-3-methyl-2-oxo-2,3-dihydro-1H-benzo[d]imidazol-1-yl)piperidine-2,6-dione], the DC50 was < 500 nM.

For the compound `O=C1CCC(Nc2ccc(C3CCN(CC4CCN(CC(=O)N[C@H]5CC[C@H](Nc6ncc(F)c(-c7cccc(-n8ccccc8=O)c7)n6)CC5)CC4)CC3)c(F)c2)C(=O)N1` (stereo partly drawn) [Compound 313, trans-2-(4-((4-(4-((2,6-dioxopiperidin-3-yl)amino)-2-fluorophenyl)piperidin-1-yl)methyl)piperidin-1-yl)-N-(4-((5-fluoro-4-(3-(2-oxopyridin-1(2H)-yl)phenyl)pyrimidin-2-yl)amino)cyclohexyl)acetamide], the half-maximal degradation concentration (DC50) was < 500 nM.

For `O=C1CCC(Nc2ccc(C3CCN(CC4CCN(CC(=O)N5CCC(Nc6ncc(F)c(-c7cccc(-n8ccccc8=O)c7)n6)CC5)CC4)CC3)c(F)c2)C(=O)N1` (centres unmarked) [Compound 314, 3-((3-fluoro-4-(1-((1-(2-(4-((5-fluoro-4-(3-(2-oxopyridin-1(2H)-yl)phenyl)pyrimidin-2-yl)amino)piperidin-1-yl)-2-oxoethyl)piperidin-4-yl)methyl)piperidin-4-yl)phenyl)amino)piperidine-2,6-dione], the DC50 is < 500 nM.

For the origin of these results see patent US20260355196A1, “INHIBITORS AND DEGRADERS OF PIP4K PROTEIN” (Larkspur Biosciences, Inc., priority 2023, published 2026).
